≈ marks a conversion by molar mass, not a printed value.
Key:
Assay in all cases: MIC determination, broth microdilution (CLSI)
Type in all cases: cell-based
[1] = system: E. cloacae 34654; details: for MIC: Enterobacter cloacae, 34654, strain 3
[2] = system: K. pneumoniae 60; details: for MIC: Klebsiella pneumoniae, 60, strain 2
[3] = system: M. morganii 126/3048; details: for MIC: Morganella morganii, 126/3048, strain 5
[4] = system: P. aeruginosa 2297 (AmpC wt); details: for MIC: Pseudomonas aeruginosa, strain 7
[5] = system: P. aeruginosa 2297-con (AmpC derepressed); details: for MIC: Pseudomonas aeruginosa, read-out: strain 8 MIC, strain 8
[6] = system: C. freundii K21/3034; details: for MIC: Citrobacter freundii, K21/3034, strain 4
[7] = system: E. coli ATCC25922; details: for MIC: Escherichia coli, ATCC25922, strain 1
[8] = system: strain 21
[9] = system: strain 20
[10] = system: M. catarrhalis ICB489; details: for MIC: Moraxella catarrhalis, ICB489, strain 12
[11] = system: E. coli J62; details: for MIC: Escherichia coli, J62, strain 17, read-out: strain 17 MIC
[12] = system: strain 19
[13] = system: P. aeruginosa PAO1; details: for MIC: Pseudomonas aeruginosa, PAO1, strain 6
[14] = system: A. baumannii ATCC15308; details: for MIC: Acinetobacter baumannii, ATCC15308, strain 9
[15] = system: E. coli J62-TEM-3; details: for MIC: Escherichia coli, J62TEM3, read-out: strain 18 MIC, strain 18
[16] = system: H. influenzae ATCC 49247; details: Haemophilus influenzae, ATCC49247, strain 13; read-out: strain 13 MIC
[17] = system: S. aureus 133; details: Staphylococcus aureus, 133, strain 11; read-out: strain 11 MIC
[18] = system: B. fragilis 6688; details: Bacteroides fragilis, 6688, strain 15; read-out: strain 15 MIC
[19] = system: S. pneumoniae 113; details: Streptococcus pneumoniae, 113, strain 14; read-out: strain 14 MIC

Compound | MIC [1] [µg/mL] | MIC [16] [µg/mL] | MIC [2] [µg/mL] | MIC [3] [µg/mL] | MIC [4] [µg/mL] | MIC [5] [µg/mL] | MIC [17] [µg/mL] | MIC [6] [µg/mL] | MIC [7] [µg/mL] | MIC [8] [µg/mL] | MIC [9] [µg/mL] | MIC [18] [µg/mL] | MIC [19] [µg/mL] | MIC [10] [µg/mL] | MIC [11] [µg/mL] | MIC [12] [µg/mL] | MIC [13] [µg/mL] | MIC [14] [µg/mL] | MIC [15] [µg/mL] | other results
C[C@H]1[C@H](NC(=O)/C(=N\OC(COc2ccc(C(=N)N)cc2)C(=O)O)c2csc(N)n2)C(=O)N1S(=O)(=O)O (mixture of isomers) [Example 26B, (2S and 2R)-2-({[(1Z)-1-(2-Amino-1,3-thiazol-4-yl)-2-{[(2S,3S)-2-methyl-4-oxo-1-sulfoazetidin-3-yl]amino}-2-oxoethylidene]amino}oxy)-3-(4-carbamidinoyl-phenoxy)propanoic acid] | – | – | – | – | – | – | – | – | – | – | – | – | – | – | – | – | – | – | – | strain 3 MIC ([1]; strain 3): 1 µg/mL; strain 2 MIC ([2]; strain 2): 0.5 µg/mL; strain 5 MIC ([3]; strain 5): 0.5 µg/mL; strain 7 MIC [4]: 8 µg/mL; strain 8 MIC ([5]; strain 8): 32 µg/mL; strain 4 MIC ([6]; strain 4): 2 µg/mL; strain 1 MIC ([7]; strain 1): 2 µg/mL; strain 21 MIC [8]: 2 µg/mL; strain 20 MIC [9]: 2 µg/mL; strain 12 MIC ([10]; strain 12): 2 µg/mL; strain 17 MIC ([11]; strain 17): 2 µg/mL; strain 19 MIC [12]: 1 µg/mL; strain 6 MIC ([13]; strain 6): 4 µg/mL; strain 9 MIC ([14]; strain 9): 16 µg/mL; strain 18 MIC ([15]; strain 18): 32 µg/mL
C[C@H]1[C@H](NC(=O)/C(=N\OCCOc2ccc(C(=N)N)nc2)c2csc(N)n2)C(=O)N1S(=O)(=O)O [Example 3, (2S,3S)-3-{[(2Z)-2-(2-Amino-1,3-thiazol-4-yl)-2-({2-[(6-carbamimidoylpyridin-3-yl)oxy]ethoxy}imino)acetyl]amino}-2-methyl-4-oxoazetidine-1-sulfonic acid] | 0.125 (≈ 0.244 µM) | 0.5 (≈ 0.976 µM) | ≤ 0.063 | 0.125 (≈ 0.244 µM) | 4 (≈ 7.8 µM) | 16 (≈ 31.2 µM) | ≤ 0.063 | ≤ 0.063 | 0.125 (≈ 0.244 µM) | 0.25 (≈ 0.488 µM) | 0.125 (≈ 0.244 µM) | 8 (≈ 15.6 µM) | 8 (≈ 15.6 µM) | 0.125 (≈ 0.244 µM) | 0.25 (≈ 0.488 µM) | 0.125 (≈ 0.244 µM) | 2 (≈ 3.9 µM) | 1 (≈ 1.95 µM) | 16 (≈ 31.2 µM) | –
C[C@H]1[C@H](NC(=O)/C(=N\OCCOc2ccc(C(=N)N)cn2)c2csc(N)n2)C(=O)N1S(=O)(=O)O [Example 5, (2S,3S)-3-{[(2Z)-2-(2-Amino-1,3-thiazol-4-yl)-2-({2-[(5-carbamimidoylpyridin-2-yl)oxy]-ethoxy}imino)acetyl]amino}-2-methyl-4-oxoazetidine-1-sulfonic acid] | 0.125 (≈ 0.244 µM) | 0.5 (≈ 0.976 µM) | ≤ 0.063 | 0.125 (≈ 0.244 µM) | 4 (≈ 7.8 µM) | 32 (≈ 62.4 µM) | 0.125 (≈ 0.244 µM) | 0.25 (≈ 0.488 µM) | 0.25 (≈ 0.488 µM) | 0.25 (≈ 0.488 µM) | 0.25 (≈ 0.488 µM) | 8 (≈ 15.6 µM) | 4 (≈ 7.8 µM) | 0.25 (≈ 0.488 µM) | 0.5 (≈ 0.976 µM) | 0.25 (≈ 0.488 µM) | 4 (≈ 7.8 µM) | 1 (≈ 1.95 µM) | 16 (≈ 31.2 µM) | –
C[C@H]1[C@H](NC(=O)/C(=N\OCCNc2ccc(C(=N)N)cc2)c2csc(N)n2)C(=O)N1S(=O)(=O)O [Example 8, (2S,3S)-3-{[(2Z)-2-(2-Amino-1,3-thiazol-4-yl)-2-({2-[(4-carbamimidoylphenyl)amino]ethoxy}imino)acetyl]amino}-2-methyl-4-oxoazetidine-1-sulfonic acid] | 2 (≈ 3.92 µM) | 1 (≈ 1.96 µM) | 0.5 (≈ 0.979 µM) | 0.25 (≈ 0.49 µM) | 32 (≈ 62.7 µM) | 32 (≈ 62.7 µM) | 0.25 (≈ 0.49 µM) | 0.5 (≈ 0.979 µM) | 1 (≈ 1.96 µM) | 4 (≈ 7.83 µM) | 4 (≈ 7.83 µM) | 16 (≈ 31.3 µM) | 8 (≈ 15.7 µM) | 0.5 (≈ 0.979 µM) | 4 (≈ 7.83 µM) | 2 (≈ 3.92 µM) | 8 (≈ 15.7 µM) | 4 (≈ 7.83 µM) | – | –
Cc1cc(OCCO/N=C(\C(=O)N[C@@H]2C(=O)N(S(=O)(=O)O)[C@H]2C)c2csc(N)n2)ccc1C(=N)N [Example 14, (2S,3S)-3-{[(2Z)-2-(2-Amino-1,3-thiazol-4-yl)-2-{[2-(4-carbamimidoyl-3-methylphenoxy)ethoxy]imino}acetyl]amino}-2-methyl-4-oxoazetidine-1-sulfonic acid] | 0.5 (≈ 0.951 µM) | 0.5 (≈ 0.951 µM) | 1 (≈ 1.9 µM) | 0.5 (≈ 0.951 µM) | 8 (≈ 15.2 µM) | 32 (≈ 60.9 µM) | ≤ 0.063 | 0.25 (≈ 0.476 µM) | 0.5 (≈ 0.951 µM) | 0.5 (≈ 0.951 µM) | 0.5 (≈ 0.951 µM) | 16 (≈ 30.4 µM) | 8 (≈ 15.2 µM) | 0.25 (≈ 0.476 µM) | 1 (≈ 1.9 µM) | 0.5 (≈ 0.951 µM) | 4 (≈ 7.61 µM) | 2 (≈ 3.81 µM) | 32 (≈ 60.9 µM) | –
C[C@H]1[C@H](NC(=O)/C(=N\OCC(C)(C)Oc2ccc(C(=N)N)cc2)c2csc(N)n2)C(=O)N1S(=O)(=O)O [Example 17, (2S,3S)-3-{[(2Z)-2-(2-Amino-1,3-thiazol-4-yl)-2-{[2-(4-carbamimidoylphenoxy)-2-methyl-propoxy]imino}acetyl]amino}-2-methyl-4-oxoazetidine-1-sulfonic acid] | 2 (≈ 3.71 µM) | 1 (≈ 1.85 µM) | 2 (≈ 3.71 µM) | ≤ 0.063 | 16 (≈ 29.7 µM) | 32 (≈ 59.3 µM) | 2 (≈ 3.71 µM) | 1 (≈ 1.85 µM) | 2 (≈ 3.71 µM) | 2 (≈ 3.71 µM) | 2 (≈ 3.71 µM) | 4 (≈ 7.41 µM) | 2 (≈ 3.71 µM) | 2 (≈ 3.71 µM) | 2 (≈ 3.71 µM) | 1 (≈ 1.85 µM) | 8 (≈ 14.8 µM) | 8 (≈ 14.8 µM) | 32 (≈ 59.3 µM) | –
C[C@H]1[C@H](NC(=O)/C(=N\OCCOc2ccc(C(=N)NO)cc2)c2csc(N)n2)C(=O)N1S(=O)(=O)O [Example 21, (2S,3S)-3-{[(2Z)-2-(2-Amino-1,3-thiazol-4-yl)-2-({2-[4-(N-hydroxycarbamimidoyl)phenoxy]ethoxy}imino)acetyl]amino}-2-methyl-4-oxoazetidine-1-sulfonic acid] | 1 (≈ 1.9 µM) | 1 (≈ 1.9 µM) | 0.25 (≈ 0.474 µM) | 0.5 (≈ 0.948 µM) | 16 (≈ 30.3 µM) | – | 0.5 (≈ 0.948 µM) | 0.25 (≈ 0.474 µM) | 1 (≈ 1.9 µM) | 1 (≈ 1.9 µM) | 1 (≈ 1.9 µM) | 32 (≈ 60.7 µM) | 32 (≈ 60.7 µM) | 0.25 (≈ 0.474 µM) | 2 (≈ 3.79 µM) | 0.5 (≈ 0.948 µM) | 16 (≈ 30.3 µM) | 8 (≈ 15.2 µM) | 16 (≈ 30.3 µM) | –
C[C@H]1[C@H](NC(=O)/C(=N\OCc2cc(C(=N)N)cs2)c2csc(N)n2)C(=O)N1S(=O)(=O)O [Example 32, (2S,3S)-3-{[(2Z)-2-(2-Amino-1,3-thiazol-4-yl)-2-(2-[(4-carbamimidoylthiophen-2-yl)methoxy]imino)acetyl]amino}-2-methyl-4-oxoazetidine-1-sulfonic acid] | 0.5 (≈ 1.03 µM) | 0.5 (≈ 1.03 µM) | – | 0.5 (≈ 1.03 µM) | 32 (≈ 65.6 µM) | – | ≤ 0.063 | 0.5 (≈ 1.03 µM) | 1 (≈ 2.05 µM) | 1 (≈ 2.05 µM) | 2 (≈ 4.1 µM) | 3 (≈ 6.15 µM) | 8 (≈ 16.4 µM) | 0.75 (≈ 1.54 µM) | 2 (≈ 4.1 µM) | 1 (≈ 2.05 µM) | 16 (≈ 32.8 µM) | 2 (≈ 4.1 µM) | 32 (≈ 65.6 µM) | –

Reference: US9556165B2 (priority 2012, dated 2017)
